Patent publication US20050282743A1, “Molecular interactions in cells” (Arbor Vita Corporation, priority 2001, published 2005)
pKd: −log10 of the molar value. Read-outs that look alike come from different tables or passages of the source. Peptide text beside a SMILES is read from it. * marks the point of attachment. Biotin = O=C1N[C@H]2[C@H](CS[C@H]2CCCCC(=O)*)N1

Tests used:
[1] = target: T1, PDZ-domain polypeptide (GST/PDZ fusion protein) (Homo sapiens, UniProt Q12923); experiment: Apparent affinity (Kd) by titration of PL peptide in the G assay; assay type: binding
T1 construct: made in house; host or cells: E. coli (DH5alpha, BL21 or JM109)
Method in brief: (§1)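 A fixed concentration of GST/PDZ fusion protein, 5 ug/ml by default, was mixed in solution with increasing labeled PL peptide (e.g. 0.1 uM-1 mM). Reaction times ranged from 10 minutes to 2 days at 4-37° C. Complexes were separated from free peptide and detected via the label as in the G assay, apparent affinity coming from the saturating concentration.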

[2] = target: T2, PDZ-domain polypeptide (GST/PDZ fusion protein) (Homo sapiens, UniProt Q5TCQ9); experiment: as above; assay type: binding
T2 construct: made in house; host or cells: E. coli (DH5alpha, BL21 or JM109)
T2 sequence (Q5TCQ9 1-1481): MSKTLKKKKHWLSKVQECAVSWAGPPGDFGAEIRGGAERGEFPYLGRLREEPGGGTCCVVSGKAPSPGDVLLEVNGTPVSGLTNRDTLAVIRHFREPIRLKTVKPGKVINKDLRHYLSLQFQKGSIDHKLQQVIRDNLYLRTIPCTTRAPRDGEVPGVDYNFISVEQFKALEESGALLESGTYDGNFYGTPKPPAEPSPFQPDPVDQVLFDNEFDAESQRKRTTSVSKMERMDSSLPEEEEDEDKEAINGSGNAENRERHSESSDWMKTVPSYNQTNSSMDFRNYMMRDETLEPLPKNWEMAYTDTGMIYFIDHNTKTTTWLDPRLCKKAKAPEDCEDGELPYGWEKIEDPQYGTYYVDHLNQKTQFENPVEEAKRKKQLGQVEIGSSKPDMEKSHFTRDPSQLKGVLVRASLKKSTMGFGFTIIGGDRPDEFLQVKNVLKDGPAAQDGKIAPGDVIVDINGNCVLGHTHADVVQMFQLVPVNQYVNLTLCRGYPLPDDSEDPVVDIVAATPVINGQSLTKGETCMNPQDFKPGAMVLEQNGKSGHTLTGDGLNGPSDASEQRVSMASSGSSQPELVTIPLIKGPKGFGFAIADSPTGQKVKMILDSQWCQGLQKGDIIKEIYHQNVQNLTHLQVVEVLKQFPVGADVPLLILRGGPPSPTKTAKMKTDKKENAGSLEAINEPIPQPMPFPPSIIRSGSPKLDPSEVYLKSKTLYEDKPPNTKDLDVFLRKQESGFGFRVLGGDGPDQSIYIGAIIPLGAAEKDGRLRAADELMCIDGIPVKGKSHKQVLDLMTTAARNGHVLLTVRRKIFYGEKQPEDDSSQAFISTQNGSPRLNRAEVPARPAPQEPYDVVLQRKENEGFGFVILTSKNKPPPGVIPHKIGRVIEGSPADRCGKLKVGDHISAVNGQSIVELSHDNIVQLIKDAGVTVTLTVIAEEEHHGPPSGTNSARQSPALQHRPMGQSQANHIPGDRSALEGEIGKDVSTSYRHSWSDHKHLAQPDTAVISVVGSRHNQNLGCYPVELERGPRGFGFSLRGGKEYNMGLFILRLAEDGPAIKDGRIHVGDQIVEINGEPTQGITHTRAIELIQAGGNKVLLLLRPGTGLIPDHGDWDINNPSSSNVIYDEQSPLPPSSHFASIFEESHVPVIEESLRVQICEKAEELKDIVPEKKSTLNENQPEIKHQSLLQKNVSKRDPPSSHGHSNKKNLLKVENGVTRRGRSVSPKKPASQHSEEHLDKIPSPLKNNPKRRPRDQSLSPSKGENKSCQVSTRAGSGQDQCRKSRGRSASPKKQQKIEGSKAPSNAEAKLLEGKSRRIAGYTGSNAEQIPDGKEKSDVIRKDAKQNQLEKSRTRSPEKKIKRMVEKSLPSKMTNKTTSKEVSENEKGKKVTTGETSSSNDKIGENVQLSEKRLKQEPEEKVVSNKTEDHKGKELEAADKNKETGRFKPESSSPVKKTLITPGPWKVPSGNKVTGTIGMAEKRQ
Method in brief: as §1

[3] = PDZ PTPL-1, PDZ Domain 2, read-out: Peptide Optimal Conc (Kd by titration of the PL peptide)

T1 sequence (Q12923 whole entry, the tested form may be a part): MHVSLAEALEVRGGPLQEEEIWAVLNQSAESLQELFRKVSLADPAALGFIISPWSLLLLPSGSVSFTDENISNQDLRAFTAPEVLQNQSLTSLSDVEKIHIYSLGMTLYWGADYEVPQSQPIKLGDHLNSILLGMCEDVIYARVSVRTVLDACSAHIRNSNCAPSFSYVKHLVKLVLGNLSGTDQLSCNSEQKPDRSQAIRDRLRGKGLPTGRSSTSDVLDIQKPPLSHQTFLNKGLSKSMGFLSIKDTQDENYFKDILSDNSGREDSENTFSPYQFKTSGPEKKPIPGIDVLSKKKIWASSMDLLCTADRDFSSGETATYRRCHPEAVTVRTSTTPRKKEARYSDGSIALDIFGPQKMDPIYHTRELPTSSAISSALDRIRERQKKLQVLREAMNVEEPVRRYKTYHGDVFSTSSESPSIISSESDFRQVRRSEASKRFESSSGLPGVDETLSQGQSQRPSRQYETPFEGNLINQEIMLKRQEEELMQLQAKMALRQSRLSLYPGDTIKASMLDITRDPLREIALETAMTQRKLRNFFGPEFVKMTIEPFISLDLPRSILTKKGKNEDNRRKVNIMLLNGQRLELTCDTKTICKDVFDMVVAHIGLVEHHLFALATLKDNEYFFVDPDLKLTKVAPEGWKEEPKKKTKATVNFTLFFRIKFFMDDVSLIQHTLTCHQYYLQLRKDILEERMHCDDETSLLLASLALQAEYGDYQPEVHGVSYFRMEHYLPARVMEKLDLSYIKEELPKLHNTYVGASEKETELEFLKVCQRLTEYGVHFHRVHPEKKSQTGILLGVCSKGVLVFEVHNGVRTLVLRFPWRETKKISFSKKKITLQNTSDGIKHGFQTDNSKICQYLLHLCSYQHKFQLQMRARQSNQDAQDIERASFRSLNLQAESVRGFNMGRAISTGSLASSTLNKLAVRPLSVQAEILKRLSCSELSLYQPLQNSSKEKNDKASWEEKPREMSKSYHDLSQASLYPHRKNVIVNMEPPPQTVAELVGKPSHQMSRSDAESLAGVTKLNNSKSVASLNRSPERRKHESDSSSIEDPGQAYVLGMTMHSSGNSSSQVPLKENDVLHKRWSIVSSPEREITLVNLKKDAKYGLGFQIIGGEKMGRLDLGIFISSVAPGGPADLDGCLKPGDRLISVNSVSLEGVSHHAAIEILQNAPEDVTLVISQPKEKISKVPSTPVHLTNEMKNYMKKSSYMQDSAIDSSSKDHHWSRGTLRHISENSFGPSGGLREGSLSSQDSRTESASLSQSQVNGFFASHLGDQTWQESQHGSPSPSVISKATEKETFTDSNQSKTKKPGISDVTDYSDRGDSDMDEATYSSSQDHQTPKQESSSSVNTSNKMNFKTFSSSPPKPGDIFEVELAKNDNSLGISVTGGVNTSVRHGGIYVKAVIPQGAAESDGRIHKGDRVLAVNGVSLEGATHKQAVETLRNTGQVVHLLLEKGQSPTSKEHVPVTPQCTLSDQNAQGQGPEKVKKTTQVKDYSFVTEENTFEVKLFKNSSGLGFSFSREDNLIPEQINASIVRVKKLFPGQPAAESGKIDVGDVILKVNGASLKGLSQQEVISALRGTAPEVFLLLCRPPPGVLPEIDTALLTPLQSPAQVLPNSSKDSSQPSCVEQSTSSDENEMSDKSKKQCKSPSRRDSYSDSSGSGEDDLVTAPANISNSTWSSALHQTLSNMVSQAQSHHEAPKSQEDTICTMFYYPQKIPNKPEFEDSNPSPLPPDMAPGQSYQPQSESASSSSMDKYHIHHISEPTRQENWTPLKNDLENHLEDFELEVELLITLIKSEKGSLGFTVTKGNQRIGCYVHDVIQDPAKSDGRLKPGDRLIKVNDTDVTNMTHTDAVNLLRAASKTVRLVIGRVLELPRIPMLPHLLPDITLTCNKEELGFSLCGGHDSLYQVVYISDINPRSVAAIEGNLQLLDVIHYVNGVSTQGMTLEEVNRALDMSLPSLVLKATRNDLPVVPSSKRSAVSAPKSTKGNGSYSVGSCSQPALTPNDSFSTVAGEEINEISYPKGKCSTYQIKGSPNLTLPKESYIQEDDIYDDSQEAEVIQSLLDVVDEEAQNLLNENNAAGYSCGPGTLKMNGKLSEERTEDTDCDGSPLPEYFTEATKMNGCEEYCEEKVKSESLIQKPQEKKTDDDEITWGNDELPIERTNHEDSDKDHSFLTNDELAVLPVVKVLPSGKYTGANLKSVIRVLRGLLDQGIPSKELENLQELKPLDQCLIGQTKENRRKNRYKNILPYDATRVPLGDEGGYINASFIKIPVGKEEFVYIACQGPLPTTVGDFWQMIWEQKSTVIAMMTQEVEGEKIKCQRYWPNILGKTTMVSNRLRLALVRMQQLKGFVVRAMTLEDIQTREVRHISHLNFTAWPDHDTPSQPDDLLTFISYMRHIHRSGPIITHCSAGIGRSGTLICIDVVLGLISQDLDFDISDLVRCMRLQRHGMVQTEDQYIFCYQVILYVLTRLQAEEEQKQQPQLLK

Structure (SMILES): CC[C@H](C)[C@H](NC(=O)[C@H](Cc1c[nH]cn1)NC(=O)[C@H](C)NC(=O)[C@H](C)NC(=O)[C@H](CO)NC(=O)[C@@H]1CCCN1C(=O)[C@H](CCCNC(=N)N)NC(=O)[C@H](CC(=O)O)NC(=O)[C@H](CCCCN)NC(=O)[C@@H]1CCCN1C(=O)[C@H](CC(=O)O)NC(=O)[C@H](CCC(=O)O)NC(=O)CCCC[C@@H]1SC[C@@H]2NC(=O)N[C@@H]21)C(=O)N[C@H](C(=O)N[C@@H](CCC(=O)O)C(=O)N[C@@H](C)C(=O)N[C@@H](CC(C)C)C(=O)N[C@@H](CCC(=O)O)C(=O)N[C@H](C(=O)N[C@@H](CC(=O)O)C(=O)N[C@H](C(=O)O)C(C)C)[C@@H](C)O)C(C)C [PDZ-binding kinase (PBK)] (Biotin-EDPKDRPSAAHIVEALETDV-OH; C-terminus assumed)
- pKd ([1]; PDZ PTPL-1, PDZ Domain 2, read-out: Peptide Optimal Conc (non-zero value: Kd by titration of the PL peptide)): 5.22
- pKd ([2]; PDZ KIAA1634, PDZ Domain 2, read-out: Peptide Optimal Conc (non-zero value: Kd by titration of the PL peptide)): 5.15

Structure (SMILES): CC[C@H](C)[C@H](NC(=O)[C@H](CCCCN)NC(=O)[C@@H](NC(=O)[C@H](CO)NC(=O)[C@@H]1CCCN1C(=O)[C@H](Cc1ccccc1)NC(=O)[C@@H](NC(=O)[C@@H](NC(=O)[C@H](CCCNC(=N)N)NC(=O)[C@H](CCC(=O)O)NC(=O)[C@H](CC(C)C)NC(=O)[C@H](CC(C)C)NC(=O)[C@H](CC(C)C)NC(=O)[C@@H](NC(=O)CNC(=O)[C@@H](NC(=O)CCCC[C@@H]1SC[C@@H]2NC(=O)N[C@@H]21)C(C)C)[C@@H](C)O)C(C)C)[C@@H](C)CC)C(C)C)C(=O)N[C@@H](C)C(=O)N[C@H](C(=O)N[C@@H](CC(C)C)C(=O)N[C@H](C(=O)O)C(C)C)[C@@H](C)O [Adenovirus E4 Type9]
- pKd ([1]; PDZ PTPL-1, PDZ Domain 2, Protein Optimal Conc 5, read-out: Peptide Optimal Conc (Kd by titration of the PL peptide)): 6.70
- pKd ([2]; PDZ KIAA1634, PDZ Domain 2, Protein Optimal Conc 5, read-out: Peptide Optimal Conc (Kd by titration of the PL peptide)): 6.82
- pKd ([2]; PDZ KIAA1634, PDZ Domain 4, Protein Optimal Conc 5, read-out: Peptide Optimal Conc (Kd by titration of the PL peptide)): 6.70

Structure (SMILES): CC[C@H](C)[C@H](NC(=O)[C@H](CCC(N)=O)NC(=O)[C@@H](NC(=O)[C@H](Cc1c[nH]cn1)NC(=O)[C@H](CCC(N)=O)NC(=O)[C@H](CC(=O)O)NC(=O)[C@H](CCC(=O)O)NC(=O)[C@H](CC(=O)O)NC(=O)[C@H](Cc1ccccc1)NC(=O)[C@@H]1CCCN1C(=O)[C@H](CCC(=O)O)NC(=O)[C@H](CC(N)=O)NC(=O)[C@H](CCC(=O)O)NC(=O)[C@@H]1CCCN1C(=O)[C@H](CC(=O)O)NC(=O)[C@H](CO)NC(=O)[C@H](CC(=O)O)NC(=O)CCCC[C@@H]1SC[C@@H]2NC(=O)N[C@@H]21)[C@@H](C)O)C(=O)N[C@H](C(=O)N[C@@H](CCCCN)C(=O)N[C@H](C(=O)O)C(C)C)[C@@H](C)O [PTEN]
- pKd [1, 3]: 6.52

Structure (SMILES): CC[C@H](C)[C@H](NC(=O)[C@H](Cc1ccc(O)cc1)NC(=O)[C@H](CC(C)C)NC(=O)[C@H](CCC(N)=O)NC(=O)[C@H](Cc1c[nH]cn1)NC(=O)[C@H](CO)NC(=O)[C@H](C)NC(=O)[C@H](CC(C)C)NC(=O)[C@@H](NC(=O)[C@H](CC(=O)O)NC(=O)[C@H](CCSC)NC(=O)[C@H](Cc1ccccc1)NC(=O)[C@@H]1CCCN1C(=O)[C@H](CCCNC(=N)N)NC(=O)[C@@H](NC(=O)[C@H](CC(C)C)NC(=O)[C@H](CC(N)=O)NC(=O)[C@H](CC(=O)O)NC(=O)[C@@H](NC(=O)[C@H](CO)NC(=O)CCCC[C@@H]1SC[C@@H]2NC(=O)N[C@@H]21)[C@@H](C)O)C(C)C)[C@@H](C)O)C(=O)O [presenilin-2] (Biotin-STDNLVRPFMDTLASHQLYI-OH; C-terminus assumed)
- pKd ([1]; PDZ PTPL-1, PDZ Domain 4, titration of the PL peptide, read-out: Peptide Optimal Conc (Kd, dissociation constant)): 5.10

Structure (SMILES): CC(C)C[C@H](NC(=O)[C@H](Cc1c[nH]c2ccccc12)NC(=O)[C@H](Cc1c[nH]cn1)NC(=O)[C@H](CCCNC(=N)N)NC(=O)[C@H](CC(C)C)NC(=O)[C@@H](NC(=O)[C@H](Cc1ccccc1)NC(=O)[C@H](CCC(N)=O)NC(=O)[C@H](CCCNC(=N)N)NC(=O)[C@@H](NC(=O)[C@H](CCC(=O)O)NC(=O)CNC(=O)[C@H](CCCNC(=N)N)NC(=O)[C@H](CC(=O)O)NC(=O)[C@@H](NC(=O)[C@H](CC(C)C)NC(=O)[C@H](CCC(=O)O)NC(=O)[C@H](CCCNC(=N)N)NC(=O)CCCC[C@@H]1SC[C@@H]2NC(=O)N[C@@H]21)C(C)C)C(C)C)[C@@H](C)O)C(=O)N[C@@H](CCCCN)C(=O)N[C@H](C(=O)O)C(C)C [Dopamine transporter (Na+-dependent)] (Biotin-RELVDRGEVRQFTLRHWLKV-OH; C-terminus assumed)
- pKd ([1]; PDZ PTPL-1, PDZ Domain 4, read-out: Peptide Optimal Conc (Kd by titration of the PL peptide)): 6.40
- pKd ([2]; PDZ KIAA1634, PDZ Domain 1, read-out: Peptide Optimal Conc (Kd by titration of the PL peptide)): 6.05

Structure (SMILES): CC(C)C[C@H](NC(=O)[C@H](CC(C)C)NC(=O)[C@@H](NC(=O)[C@H](CC(=O)O)NC(=O)CCCC[C@@H]1SC[C@@H]2NC(=O)N[C@@H]21)[C@@H](C)O)C(=O)N[C@@H](CC(C)C)C(=O)N[C@H](C(=O)N[C@@H](CCC(=O)O)C(=O)N[C@@H](CC(N)=O)C(=O)N[C@@H](CCC(=O)O)C(=O)NCC(=O)N[C@@H](CC(=O)O)C(=O)N[C@@H](CCCCN)C(=O)N[C@H](C(=O)N[C@@H](CCC(=O)O)C(=O)N[C@@H](CCC(=O)O)C(=O)N[C@@H](CCC(N)=O)C(=O)N[C@H](C(=O)N[C@@H](CO)C(=O)N[C@@H](Cc1ccc(O)cc1)C(=O)N[C@H](C(=O)O)C(C)C)C(C)C)[C@@H](C)O)[C@@H](C)O [5H2B_HUMAN] (Biotin-DTLLLTENEGDKTEEQVSYV-OH; C-terminus assumed)
- pKd [1, 3]: 6.70
